Measurements reported in ChEMBL document CHEMBL5291721, “A preclinical secondary pharmacology resource illuminates target-adverse drug reaction associations of marketed drugs” (Nat Commun, 2023).
*1 amine or outer side, *2 acyl side, *3 side chain or, on linkers, in order; H or OH if unused. Where a SMILES comes first, the peptide text is derived from it. Bridges are numbered along the chain shown (N, C = ends). [ ]: non-standard residue; d: D form. The star is where a group is joined. hTyr(3S-OH,4S-OH,3'-OSO3H) = N[C@H](C(=O)O)[C@H](O)[C@@H](O)c1ccc(O)c(OS(=O)(=O)O)c1; Orn(4R-OH,5R-OH) = O=C([C@H](C[C@@H](O)[C@@H](O)N[*:3])N[*:1])[*:2]; Pro(3S-OH,4S-Me) = C[C@H]1CN[C@H](C(=O)O)[C@H]1O; X1 = CCCCCOc1ccc(-c2cc(-c3ccc(C(=O)*)cc3)no2)cc1; Gln(3R-OH) = NC(=O)C[C@@H](O)[C@H](N)C(=O)O; Hyp = O=C(O)[C@@H]1C[C@@H](O)CN1

What was measured:
Thromboxane A2 receptor = biological target: T1, Thromboxane A2 receptor (Homo sapiens, UniProt P21731); format: functional, cell-based
T1 sequence (P21731 whole entry): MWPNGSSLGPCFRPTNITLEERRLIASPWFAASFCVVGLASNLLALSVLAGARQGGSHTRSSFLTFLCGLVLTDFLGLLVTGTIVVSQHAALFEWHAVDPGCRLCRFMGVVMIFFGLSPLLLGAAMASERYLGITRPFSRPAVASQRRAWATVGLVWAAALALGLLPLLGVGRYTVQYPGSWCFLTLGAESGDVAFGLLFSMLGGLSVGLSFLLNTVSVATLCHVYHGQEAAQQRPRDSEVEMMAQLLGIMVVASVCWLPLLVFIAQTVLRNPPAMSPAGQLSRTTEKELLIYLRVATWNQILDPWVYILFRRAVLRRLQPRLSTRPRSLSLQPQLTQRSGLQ

[1] = biological target: Voltage-gated inwardly rectifying potassium channel KCNH2 (Homo sapiens, UniProt Q12809); format: functional; conditions: read-out: AC50
D(1A) dopamine receptor = D(1A) dopamine receptor (Homo sapiens, UniProt P21728)
Sequence of D(1A) dopamine receptor (P21728 whole entry): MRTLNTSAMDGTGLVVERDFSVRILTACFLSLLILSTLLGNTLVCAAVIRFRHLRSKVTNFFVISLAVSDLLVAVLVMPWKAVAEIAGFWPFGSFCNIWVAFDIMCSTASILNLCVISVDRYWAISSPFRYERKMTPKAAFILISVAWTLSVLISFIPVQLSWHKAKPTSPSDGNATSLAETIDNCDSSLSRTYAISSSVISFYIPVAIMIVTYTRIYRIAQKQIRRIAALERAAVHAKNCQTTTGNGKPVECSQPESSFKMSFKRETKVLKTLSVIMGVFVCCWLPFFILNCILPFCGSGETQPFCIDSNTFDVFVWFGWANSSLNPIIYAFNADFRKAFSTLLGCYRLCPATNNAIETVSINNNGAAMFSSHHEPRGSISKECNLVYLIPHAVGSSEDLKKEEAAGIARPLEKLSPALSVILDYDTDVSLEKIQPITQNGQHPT

Prothrombin = Prothrombin (Homo sapiens, UniProt P00734); format: functional
Histamine H3 receptor = Histamine H3 receptor (Homo sapiens, UniProt Q9Y5N1)
[2] = biological target: T2, Amine oxidase [flavin-containing] A (Homo sapiens, UniProt P21397); format: functional
T2 sequence (P21397 whole entry): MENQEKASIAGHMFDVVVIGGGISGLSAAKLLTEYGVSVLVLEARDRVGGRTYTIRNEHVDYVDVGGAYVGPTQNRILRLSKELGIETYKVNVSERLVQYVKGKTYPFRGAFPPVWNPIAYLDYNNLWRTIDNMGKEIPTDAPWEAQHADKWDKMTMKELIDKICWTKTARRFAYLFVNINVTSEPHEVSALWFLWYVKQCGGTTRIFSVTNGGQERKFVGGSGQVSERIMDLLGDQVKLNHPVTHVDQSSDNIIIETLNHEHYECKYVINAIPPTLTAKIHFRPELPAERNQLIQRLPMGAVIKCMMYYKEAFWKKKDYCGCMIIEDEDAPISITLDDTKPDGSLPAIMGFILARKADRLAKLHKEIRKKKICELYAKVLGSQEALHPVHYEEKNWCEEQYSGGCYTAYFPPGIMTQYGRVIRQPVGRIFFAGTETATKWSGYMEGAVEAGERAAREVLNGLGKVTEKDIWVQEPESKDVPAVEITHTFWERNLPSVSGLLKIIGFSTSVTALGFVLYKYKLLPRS

Mu-type opioid receptor = Mu-type opioid receptor (Homo sapiens, UniProt P35372)
Sequence of Mu-type opioid receptor (P35372 whole entry): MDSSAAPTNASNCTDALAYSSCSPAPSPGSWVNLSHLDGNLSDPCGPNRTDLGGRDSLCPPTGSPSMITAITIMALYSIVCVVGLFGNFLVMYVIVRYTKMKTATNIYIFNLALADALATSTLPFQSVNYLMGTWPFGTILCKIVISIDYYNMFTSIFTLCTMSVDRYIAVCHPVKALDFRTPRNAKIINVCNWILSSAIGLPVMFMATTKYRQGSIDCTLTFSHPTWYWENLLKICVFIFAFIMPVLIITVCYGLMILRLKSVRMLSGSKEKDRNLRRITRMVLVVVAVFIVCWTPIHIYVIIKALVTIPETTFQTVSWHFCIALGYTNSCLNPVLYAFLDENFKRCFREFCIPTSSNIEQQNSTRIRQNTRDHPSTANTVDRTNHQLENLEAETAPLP

Acetylcholinesterase = Acetylcholinesterase (Homo sapiens, UniProt P22303); format: functional
Sequence of Acetylcholinesterase (P22303 whole entry): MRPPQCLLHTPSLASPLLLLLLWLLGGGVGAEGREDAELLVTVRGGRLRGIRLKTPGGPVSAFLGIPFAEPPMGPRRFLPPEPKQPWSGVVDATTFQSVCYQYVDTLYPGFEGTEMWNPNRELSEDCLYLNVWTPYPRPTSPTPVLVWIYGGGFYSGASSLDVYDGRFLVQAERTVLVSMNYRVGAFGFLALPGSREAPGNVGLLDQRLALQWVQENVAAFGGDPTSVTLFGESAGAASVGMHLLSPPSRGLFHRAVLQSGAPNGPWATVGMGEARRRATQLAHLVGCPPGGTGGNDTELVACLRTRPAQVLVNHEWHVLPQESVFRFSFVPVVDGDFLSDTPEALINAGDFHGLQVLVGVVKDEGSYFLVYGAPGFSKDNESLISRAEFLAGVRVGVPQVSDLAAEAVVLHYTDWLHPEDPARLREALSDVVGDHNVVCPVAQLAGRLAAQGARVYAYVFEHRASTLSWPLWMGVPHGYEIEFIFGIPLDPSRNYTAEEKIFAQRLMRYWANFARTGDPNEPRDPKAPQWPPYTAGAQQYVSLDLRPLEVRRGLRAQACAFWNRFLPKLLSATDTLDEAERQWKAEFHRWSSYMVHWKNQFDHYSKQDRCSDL

[3] = biological target: Prostaglandin G/H synthase 1 (Homo sapiens, UniProt P23219); format: functional
[4] = biological target: 5-hydroxytryptamine receptor 2B (Homo sapiens, UniProt P41595); format: functional, cell-based
Sequence of 5-hydroxytryptamine receptor 2B (P41595 whole entry): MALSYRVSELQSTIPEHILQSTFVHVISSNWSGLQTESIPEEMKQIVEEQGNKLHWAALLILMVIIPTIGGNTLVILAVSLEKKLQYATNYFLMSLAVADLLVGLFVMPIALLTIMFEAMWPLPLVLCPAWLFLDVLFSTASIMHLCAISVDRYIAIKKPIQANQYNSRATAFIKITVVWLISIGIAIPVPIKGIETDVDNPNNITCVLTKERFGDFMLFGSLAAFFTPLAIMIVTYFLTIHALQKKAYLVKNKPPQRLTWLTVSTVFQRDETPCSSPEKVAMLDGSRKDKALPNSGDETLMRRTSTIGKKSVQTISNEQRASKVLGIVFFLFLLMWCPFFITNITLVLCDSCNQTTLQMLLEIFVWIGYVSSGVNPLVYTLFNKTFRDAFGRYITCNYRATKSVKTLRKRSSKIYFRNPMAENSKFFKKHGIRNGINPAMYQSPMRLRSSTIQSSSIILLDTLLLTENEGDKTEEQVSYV

[5] = biological target: T3, 5-hydroxytryptamine receptor 1A (Homo sapiens, UniProt P08908)
T3 sequence (P08908 whole entry): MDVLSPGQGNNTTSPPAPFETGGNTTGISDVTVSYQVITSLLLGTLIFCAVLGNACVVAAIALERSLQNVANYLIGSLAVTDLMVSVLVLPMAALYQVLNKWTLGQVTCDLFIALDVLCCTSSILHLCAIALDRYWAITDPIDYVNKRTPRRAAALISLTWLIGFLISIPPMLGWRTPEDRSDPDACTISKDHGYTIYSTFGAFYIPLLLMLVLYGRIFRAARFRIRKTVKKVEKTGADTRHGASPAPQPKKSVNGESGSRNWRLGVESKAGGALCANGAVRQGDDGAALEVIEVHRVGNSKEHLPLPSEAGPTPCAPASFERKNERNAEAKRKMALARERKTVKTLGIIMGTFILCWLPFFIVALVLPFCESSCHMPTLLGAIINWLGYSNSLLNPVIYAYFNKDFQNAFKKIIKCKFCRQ

[6] = biological target: Sodium-dependent noradrenaline transporter (Homo sapiens, UniProt P23975)
Sequence of Sodium-dependent noradrenaline transporter (P23975 whole entry): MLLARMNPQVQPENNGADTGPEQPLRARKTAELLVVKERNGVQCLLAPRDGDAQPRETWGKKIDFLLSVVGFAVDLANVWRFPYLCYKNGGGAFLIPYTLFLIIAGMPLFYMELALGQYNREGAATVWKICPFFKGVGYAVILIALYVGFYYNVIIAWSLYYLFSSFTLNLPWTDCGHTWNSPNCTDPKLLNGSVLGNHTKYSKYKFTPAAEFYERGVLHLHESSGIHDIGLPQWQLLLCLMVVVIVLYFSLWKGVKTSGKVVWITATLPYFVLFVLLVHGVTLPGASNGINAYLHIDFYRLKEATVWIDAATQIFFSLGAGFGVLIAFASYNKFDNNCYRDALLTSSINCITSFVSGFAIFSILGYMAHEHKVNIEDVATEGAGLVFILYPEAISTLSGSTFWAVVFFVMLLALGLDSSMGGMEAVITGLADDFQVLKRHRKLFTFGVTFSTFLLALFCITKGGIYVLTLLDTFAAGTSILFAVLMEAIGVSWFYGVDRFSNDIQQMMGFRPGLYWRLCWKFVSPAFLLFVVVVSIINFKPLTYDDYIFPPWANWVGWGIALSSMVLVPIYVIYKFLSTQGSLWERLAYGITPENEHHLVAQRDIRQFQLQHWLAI

[7] = biological target: cGMP-inhibited 3',5'-cyclic phosphodiesterase 3A (Homo sapiens, UniProt Q14432); format: functional
Sequence of cGMP-inhibited 3',5'-cyclic phosphodiesterase 3A (Q14432 whole entry): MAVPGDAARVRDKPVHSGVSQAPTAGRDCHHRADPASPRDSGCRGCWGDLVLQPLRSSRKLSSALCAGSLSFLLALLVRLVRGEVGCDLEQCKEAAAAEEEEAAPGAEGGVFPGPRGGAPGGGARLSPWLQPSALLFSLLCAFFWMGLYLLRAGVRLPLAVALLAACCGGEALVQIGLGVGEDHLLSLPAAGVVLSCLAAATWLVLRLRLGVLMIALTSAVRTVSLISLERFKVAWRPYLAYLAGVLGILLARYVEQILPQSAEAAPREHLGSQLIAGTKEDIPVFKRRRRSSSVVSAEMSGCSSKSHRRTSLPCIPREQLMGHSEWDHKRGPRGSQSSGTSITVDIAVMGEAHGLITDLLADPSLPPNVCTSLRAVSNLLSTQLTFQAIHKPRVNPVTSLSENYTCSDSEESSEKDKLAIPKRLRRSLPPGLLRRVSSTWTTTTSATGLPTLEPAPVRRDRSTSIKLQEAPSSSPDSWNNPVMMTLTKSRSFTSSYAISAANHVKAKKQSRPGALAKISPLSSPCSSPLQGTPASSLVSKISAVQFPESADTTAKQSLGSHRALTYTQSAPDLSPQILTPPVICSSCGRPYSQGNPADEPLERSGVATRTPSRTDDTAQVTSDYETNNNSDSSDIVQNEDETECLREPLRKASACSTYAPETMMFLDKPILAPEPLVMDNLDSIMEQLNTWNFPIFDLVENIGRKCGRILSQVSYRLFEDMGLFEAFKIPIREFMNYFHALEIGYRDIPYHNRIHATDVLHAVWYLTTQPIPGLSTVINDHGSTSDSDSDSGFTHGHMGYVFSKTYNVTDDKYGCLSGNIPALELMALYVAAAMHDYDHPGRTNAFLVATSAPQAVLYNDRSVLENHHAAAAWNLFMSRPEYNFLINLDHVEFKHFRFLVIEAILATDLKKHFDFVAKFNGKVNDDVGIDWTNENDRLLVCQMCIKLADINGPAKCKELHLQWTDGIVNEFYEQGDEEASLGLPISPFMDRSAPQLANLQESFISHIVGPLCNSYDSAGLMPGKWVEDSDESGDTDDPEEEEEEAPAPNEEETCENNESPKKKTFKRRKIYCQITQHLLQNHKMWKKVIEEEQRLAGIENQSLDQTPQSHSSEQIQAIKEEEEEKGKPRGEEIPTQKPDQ

[8] = biological target: 3',5'-cyclic-AMP phosphodiesterase 4A (Homo sapiens, UniProt P27815); format: functional
[9] = biological target: T4, Muscarinic acetylcholine receptor M2 (Homo sapiens, UniProt P08172)
T4 sequence (P08172 whole entry): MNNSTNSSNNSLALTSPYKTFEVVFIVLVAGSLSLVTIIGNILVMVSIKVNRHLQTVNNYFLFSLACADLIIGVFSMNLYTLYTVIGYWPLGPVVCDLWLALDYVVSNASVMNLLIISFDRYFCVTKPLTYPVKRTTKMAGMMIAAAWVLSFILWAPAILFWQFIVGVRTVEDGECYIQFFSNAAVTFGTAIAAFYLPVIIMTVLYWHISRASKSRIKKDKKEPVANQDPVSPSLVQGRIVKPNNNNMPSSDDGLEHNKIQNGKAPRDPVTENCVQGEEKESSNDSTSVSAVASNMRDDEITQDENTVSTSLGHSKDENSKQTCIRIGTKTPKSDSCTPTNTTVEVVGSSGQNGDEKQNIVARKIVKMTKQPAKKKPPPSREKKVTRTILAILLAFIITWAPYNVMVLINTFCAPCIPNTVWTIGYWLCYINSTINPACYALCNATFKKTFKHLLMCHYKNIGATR

[10] = biological target: Sodium-dependent dopamine transporter (Homo sapiens, UniProt Q01959)
Sequence of Sodium-dependent dopamine transporter (Q01959 whole entry): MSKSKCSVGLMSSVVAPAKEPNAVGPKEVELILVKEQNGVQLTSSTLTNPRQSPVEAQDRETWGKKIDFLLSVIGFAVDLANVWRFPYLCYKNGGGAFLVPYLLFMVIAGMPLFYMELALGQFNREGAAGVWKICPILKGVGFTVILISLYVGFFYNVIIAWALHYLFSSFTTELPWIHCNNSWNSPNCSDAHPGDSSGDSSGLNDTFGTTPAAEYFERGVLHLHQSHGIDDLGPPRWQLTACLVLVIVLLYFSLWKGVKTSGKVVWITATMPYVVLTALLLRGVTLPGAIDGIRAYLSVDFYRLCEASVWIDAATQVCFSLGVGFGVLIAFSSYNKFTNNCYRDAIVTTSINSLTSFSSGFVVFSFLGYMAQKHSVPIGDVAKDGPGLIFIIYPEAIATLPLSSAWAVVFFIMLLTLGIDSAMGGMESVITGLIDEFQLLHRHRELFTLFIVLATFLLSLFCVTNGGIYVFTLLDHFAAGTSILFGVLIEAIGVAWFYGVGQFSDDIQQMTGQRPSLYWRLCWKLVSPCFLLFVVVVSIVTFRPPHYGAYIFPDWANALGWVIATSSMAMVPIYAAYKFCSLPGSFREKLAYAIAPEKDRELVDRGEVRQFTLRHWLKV

D(3) dopamine receptor = D(3) dopamine receptor (Homo sapiens, UniProt P35462)
Sequence of D(3) dopamine receptor (P35462 whole entry): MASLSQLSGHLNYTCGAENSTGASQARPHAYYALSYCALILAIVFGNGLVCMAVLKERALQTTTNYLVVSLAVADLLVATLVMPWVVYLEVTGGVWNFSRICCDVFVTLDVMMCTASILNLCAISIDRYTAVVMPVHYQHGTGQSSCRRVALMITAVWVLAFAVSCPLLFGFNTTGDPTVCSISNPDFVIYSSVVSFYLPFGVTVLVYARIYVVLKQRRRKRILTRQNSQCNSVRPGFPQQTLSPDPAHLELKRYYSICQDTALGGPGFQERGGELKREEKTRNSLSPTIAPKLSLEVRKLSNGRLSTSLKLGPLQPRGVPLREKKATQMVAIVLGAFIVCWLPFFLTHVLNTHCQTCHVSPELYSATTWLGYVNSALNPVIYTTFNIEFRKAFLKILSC
Note: assay procedure not described here.

| SMILES | AC50 (Thromboxane A2 receptor) | AC50 [1] | AC50 (D(1A) dopamine receptor) | AC50 (Prothrombin) | AC50 (Histamine H3 receptor) | AC50 [2] | AC50 (Mu-type opioid receptor) | AC50 (Acetylcholinesterase) | AC50 [3] | AC50 [4] | AC50 [5] | AC50 [6] | AC50 [7] | AC50 [8] | AC50 [9] | AC50 [10] | AC50 (D(3) dopamine receptor) |
| --- | --- | --- | --- | --- | --- | --- | --- | --- | --- | --- | --- | --- | --- | --- | --- | --- | --- |
| C[C@]12CCC(=O)C=C1CC[C@@H]1[C@@H]2[C@@H](O)C[C@@]2(C)[C@H]1CC[C@]2(O)C(=O)COC(=O)CCC(=O)O [HYDROCORTISONE HEMISUCCINATE ANHYDROUS] | > 30 µM | > 30 µM | > 30 µM | > 30 µM | > 30 µM | > 30 µM | > 30 µM | > 30 µM | > 30 µM | > 30 µM | > 30 µM | > 30 µM | > 30 µM | > 30 µM | > 30 µM | > 30 µM |  |
| CC(C)(N)C(=O)N[C@H](Cc1c[nH]c2ccccc12)C(=O)N[C@H](Cc1c[nH]c2ccccc12)NC=O [MACIMORELIN] | > 30 µM |  | > 30 µM | > 30 µM | > 30 µM | > 30 µM | 0.75 µM | > 30 µM | > 30 µM | > 30 µM | > 30 µM | > 30 µM | > 30 µM | > 30 µM | > 30 µM | > 30 µM | > 30 µM |
| CCCCCOc1ccc(-c2cc(-c3ccc(C(=O)N[C@H]4C[C@@H](O)[C@@H](O)NC(=O)[C@@H]5[C@@H](O)[C@@H](C)CN5C(=O)[C@H]([C@H](O)CC(N)=O)NC(=O)[C@H]([C@H](O)[C@@H](O)c5ccc(O)c(OS(=O)(=O)O)c5)NC(=O)[C@@H]5C[C@@H](O)CN5C(=O)[C@H]([C@@H](C)O)NC4=O)cc3)no2)cc1 [MICAFUNGIN] (X1-[Orn(4R-OH,5R-OH)]T[Hyp][hTyr(3S-OH,4S-OH,3'-OSO3H)][Gln(3R-OH)][Pro(3S-OH,4S-Me)]; lactam 1-C) | 7.12 µM |  | > 30 µM | > 30 µM | > 30 µM | > 30 µM | 7.68 µM | > 30 µM | > 30 µM | > 30 µM | > 30 µM | 14.6 µM | > 30 µM | 29.5 µM | > 30 µM | 21.7 µM | > 30 µM |
| CN1CCC[C@H]1c1cccnc1 [NICOTINE] | > 30 µM |  | > 30 µM | > 30 µM | > 30 µM | > 30 µM | > 30 µM | > 30 µM | > 30 µM | > 30 µM | > 30 µM | > 30 µM | > 30 µM | > 30 µM | > 30 µM | > 30 µM | > 30 µM |
| C#C[C@]1(O)CC[C@H]2[C@@H]3CCC4=C(CCC(=O)C4)[C@H]3CC[C@@]21C [NORETHYNODREL] | 24.2 µM |  | > 30 µM | > 30 µM | > 30 µM | > 30 µM | > 30 µM | > 30 µM | > 30 µM | > 30 µM | > 30 µM | > 30 µM | 23.4 µM | > 30 µM | > 30 µM | > 30 µM | > 30 µM |
| CN(C)C(=O)c1nc(CNC(=O)CN)n(-c2ccc(Cl)cc2C(=O)c2ccccc2Cl)n1 [RILMAZAFONE] | > 30 µM |  | > 30 µM | > 30 µM | > 30 µM | > 30 µM | > 30 µM | > 30 µM | > 30 µM | > 30 µM | > 30 µM | > 30 µM | > 30 µM | > 30 µM | > 30 µM | > 30 µM | > 30 µM |
